Experimental data from PubChem BioAssay (NCI).
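Cells were grown in 96-well plates and exposed to each compound for 48 hours at five concentrations; endpoints were interpolated linearly between bracketing concentrations, or set to the highest concentration if not reached. TGI: concentration producing complete growth inhibition.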

Assays:
Experiment in all cases: NCI tumour cell line growth inhibition, 48 h
786-0 renal = test system: 786-0 renal
ACHN renal = test system: ACHN renal
CAKI-1 renal = test system: CAKI-1 renal
DLD-1 colon = test system: DLD-1 colon
DMS 273 small cell lung = test system: DMS 273 small cell lung
KM20L2 colon = test system: KM20L2 colon
M19-MEL melanoma = test system: M19-MEL melanoma
SK-OV-3 ovarian = test system: SK-OV-3 ovarian
SN12C renal = test system: SN12C renal

Row | SMILES | TGI (786-0 renal) [µM] | TGI (ACHN renal) [µM] | TGI (CAKI-1 renal) [µM] | TGI (DLD-1 colon) [µM] | TGI (DMS 273 small cell lung) [µM] | TGI (KM20L2 colon) [µM] | TGI (M19-MEL melanoma) [µM] | TGI (SK-OV-3 ovarian) [µM] | TGI (SN12C renal) [µM]
1 | CC1=C2C(=O)C(C)(C)C=C2C(=O)[C@](C)(O)C12CC2 | > 1 | > 1 | > 1 | > 1 | > 0.464 | > 1 | > 1 | > 1 | > 1
2 | CCOC(=O)/C(C#N)=C\C=C1/C=CNC2=NCCN21 | > 100 | > 100 | > 100 | > 100 | > 100 | > 100 | > 100 | > 100 | > 100
3 | O=C(c1cc2c(C(F)(F)F)onc2c2ccccc12)C(F)(F)F | > 45.1 | 14 | 20.9 | > 100 | 16.1 | 25.1 | 23.4 | 46.7 | 7.85
4 | CC(C)Cc1ccc(C(C)/C=C2\CCC(CN3CCCC3)C2=O)cc1 (configuration not stated) | 3.73 | 24.3 | 28 | 6.67 | 14.5 | 33.3 | 13.7 | 33.9 | 13.3
5 | N#CC(C(=O)CCC(=O)Nc1ccc(Cl)cc1)c1ccccc1Cl (configuration not stated) | > 100 | > 100 | > 100 | > 100 | > 100 | > 100 | > 100 | > 100 | > 100
6 | Cc1ccc(NC(=O)CC/C(CC(=O)c2ccc(Cl)cc2)=N\NC(=O)C(=O)NN)cc1C | > 100 | > 100 | > 100 | > 100 | > 100 | > 100 | > 100 | > 100 | > 100
7 | NNC(=O)CCC(=O)Nc1ccc(Cl)cc1Cl | > 100 | > 100 | > 100 | > 100 | > 100 | > 100 | > 100 | > 100 | > 100
8 | CC(=O)O[C@H]1CCC2[C@@H]3CCC4Nc5c(cnn5-c5ccccc5)C[C@]4(C)C3CC[C@@]21C (some centres not stated) | 67.5 | 48.1 | 20.7 | > 100 | 14.4 | 37.1 | 24.4 | 42.4 | 41.4
